The text below walks through data of patent publication US11987648B2, “Cyclohexapeptides as selective somatostatin SST5 receptor agonists” (Heptares Therapeutics Limited, priority 2018, dated 2024).

For one assay, the target named is SST5 (Homo sapiens, UniProt P35346). In words: Hit Hunter cAMP XS+ assay, SST5 activation via Gi (reduction of forskolin-stimulated cAMP). It counts as cell-based. As to conditions: for Emax: read-out: SST5 (EMax); for EC50: reduction of forskolin-stimulated cAMP, 4-parameter logistic fit, read-out: SST5 pEC50 (converted); for SST5/2 Selectivity: selectivity for SST5 over SST2. As to the method:
(§1) A Hit Hunter® cAMP XS+ assay was used to monitor activation of the SST2 and SST5 via the Gi G protein. Cells were pre-stimulated with forskolin to elicit a cAMP response and the potency and efficacy of somatostatin agonists to reduce cAMP was measured. Briefly cells (10,000 cells/well) were incubated (37° C.; 30 min) with compound ([…]) in media (2:1 HBSS/11 mM Hepes: cAMP XS+Ab reagent) in the presence of EC80 forskolin ([…] and 15 μM SST5). Signal was detected through incubation with 20 μL cAMP XS+ED/CL lysis cocktail ([…]; RT) followed by incubation with […] cAMP XS+EA reagent (180 min; RT). Microplates were read with a PerkinElmer Envision™ instrument for chemiluminescent signal detection.

A further assay addresses SST2 (Homo sapiens, UniProt P30874). In words: Hit Hunter cAMP XS+ assay, SST2 activation via Gi (reduction of forskolin-stimulated cAMP). It counts as cell-based. The following applies: for Emax: read-out: SST2 (EMax); for EC50: reduction of forskolin-stimulated cAMP, 4-parameter logistic fit, read-out: SST2 pEC50 (converted). As to the method: as §1

*1 amine or outer side, *2 acyl side, *3 side chain or, on linkers, in order; H or OH if unused. Where a SMILES comes first, the peptide text is derived from it. Side-chain parts run from the residue outwards. [ ]: non-standard residue; d: D form. The star is where a group is joined. Ala(piperidin-4-yl) = O=C([C@H](CC1CCN([*:3])CC1)N[*:1])[*:2]; dTrp(5-OMe) = COc1ccc2[nH]cc(C[C@@H](N)C(=O)O)c2c1; Ala(piperazin-1-yl) = N[C@@H](CN1CCNCC1)C(=O)O; X5 = CN([C@@H](CC1CCNCC1)C(=O)[*:2])[*:1]; Phe(3-Cl) = N[C@@H](Cc1cccc(Cl)c1)C(=O)O; Phe(4-Cl) = N[C@@H](Cc1ccc(Cl)cc1)C(=O)O; Morpholine(3S-CO) = O=C(O)[C@@H]1COCCN1; Ethylenediamine = C(CN[*:2])N[*:1]; d(hPhe) = N[C@H](CCc1ccccc1)C(=O)O; Hyp = O=C(O)[C@@H]1C[C@@H](O)CN1; hPhe = N[C@@H](CCc1ccccc1)C(=O)O; 3Pal = N[C@@H](Cc1cccnc1)C(=O)O; Cyclohexylmethyl = C1CCC(C*)CC1; Tic = O=C(O)[C@@H]1Cc2ccccc2CN1; Benzyl(4-Cl) = Clc1ccc(C*)cc1; CO = O=C([*:1])[*:2]; Bn = c1ccc(C*)cc1 Bounds are passed on as bounds.

By Emax is commonly meant the size of the effect at its maximum, as opposed to the concentration needed.

Sequence of SST2 (P30874 whole entry): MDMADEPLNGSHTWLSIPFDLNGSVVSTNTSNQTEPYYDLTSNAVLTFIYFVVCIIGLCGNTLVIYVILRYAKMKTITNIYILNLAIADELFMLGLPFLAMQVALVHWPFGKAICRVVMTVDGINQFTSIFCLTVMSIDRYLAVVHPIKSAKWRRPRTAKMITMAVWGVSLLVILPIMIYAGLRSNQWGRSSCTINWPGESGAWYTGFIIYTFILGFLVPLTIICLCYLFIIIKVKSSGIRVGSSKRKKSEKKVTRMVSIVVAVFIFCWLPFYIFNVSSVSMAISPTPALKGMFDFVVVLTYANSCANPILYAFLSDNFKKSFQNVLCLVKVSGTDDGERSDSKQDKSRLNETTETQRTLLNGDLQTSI
Sequence of SST5 (P35346 whole entry): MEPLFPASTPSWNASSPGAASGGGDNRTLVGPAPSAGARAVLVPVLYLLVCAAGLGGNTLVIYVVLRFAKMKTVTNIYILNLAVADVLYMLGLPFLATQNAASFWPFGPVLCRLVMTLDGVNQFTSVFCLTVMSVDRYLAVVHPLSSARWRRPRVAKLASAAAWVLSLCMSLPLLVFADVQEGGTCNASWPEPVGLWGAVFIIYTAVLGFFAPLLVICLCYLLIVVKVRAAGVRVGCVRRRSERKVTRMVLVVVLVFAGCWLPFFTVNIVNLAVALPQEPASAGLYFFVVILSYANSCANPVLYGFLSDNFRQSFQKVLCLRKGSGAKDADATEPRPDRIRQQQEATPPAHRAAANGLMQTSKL

Turning to `NCCNC(=O)O[C@@H]1C[C@H]2C(=O)N[C@H](CCc3ccccc3)C(=O)N[C@H](Cc3c[nH]c4ccccc34)C(=O)N[C@@H](CN3CCNCC3)C(=O)N[C@@H](Cc3ccc(OCc4ccccc4)cc3)C(=O)N[C@@H](Cc3ccc(Cl)cc3)C(=O)N2C1` [Example 30] (cyclo([Hyp]([CO-Ethylenediamine])[d(hPhe)][dW][Ala(piperazin-1-yl)]Y(Bn)[Phe(4-Cl)])), at SST5, the Emax is 101%, the EC50 was 1 nM and the “SST5/2 Selectivity” value stood at 214.2. Moreover, at SST2, the Emax is 100% and the EC50 is 251 nM.
The like results for `O=C1N[C@@H](Cc2ccc(OCc3ccccc3)cc2)C(=O)N2Cc3ccccc3C[C@H]2C(=O)N2CCOC[C@H]2C(=O)N[C@@H](CCc2ccccc2)C(=O)N[C@H](Cc2c[nH]c3ccccc23)C(=O)N[C@H]1CN1CCNCC1` [Example 31] (cyclo([Tic][Morpholine(3S-CO)][hPhe][dW][Ala(piperazin-1-yl)]Y(Bn))) were, in that order, 88.7%, 0.0631 nM, 3441.5, 99.7% and 200 nM.
The like results for `CN1C(=O)[C@@H](Cc2c[nH]c3ccccc23)NC(=O)[C@@H](CCc2ccccc2)NC(=O)[C@@H]2COCCN2C(=O)[C@@H]2Cc3ccccc3CN2C(=O)[C@H](Cc2ccc(OCc3ccccc3)cc2)NC(=O)[C@@H]1CC1CCNCC1` [Example 32] (cyclo([Tic][Morpholine(3S-CO)][d(hPhe)][dW][X5]Y(Bn))) were, in that order, 99.9%, 1.26 nM, 66.8, 98.8% and 100 nM.
In the same order, the values of `NCCNC(=O)O[C@@H]1C[C@H]2C(=O)N[C@H](CCc3ccccc3)C(=O)N[C@@H](Cc3c[nH]c4ccccc34)C(=O)N[C@@H](CN3CCNCC3)C(=O)N[C@@H](Cc3ccc(OCc4ccccc4)cc3)C(=O)N[C@@H](Cc3cccnc3)C(=O)N2C1` [Example 33] (cyclo([3Pal][Hyp]([CO-Ethylenediamine])[d(hPhe)]W[Ala(piperazin-1-yl)]Y(Bn))) are 107%, 39.8 nM, 279.1, 13.4% and > 10000 nM.
On to `NCCNC(=O)O[C@@H]1C[C@H]2C(=O)N[C@@H](CCc3ccccc3)C(=O)N[C@@H](Cc3c[nH]c4ccccc34)C(=O)N[C@@H](CN3CCNCC3)C(=O)N[C@@H](Cc3ccc(OCc4ccccc4)cc3)C(=O)N[C@@H](Cc3cccnc3)C(=O)N2C1` [Example 34] (cyclo([3Pal][Hyp]([CO-Ethylenediamine])[hPhe]W[Ala(piperazin-1-yl)]Y(Bn))), for which, on SST5, the Emax came to 102%, the EC50 is 1 nM and the “SST5/2 Selectivity” value is recorded as 3271.8. At SST2, the Emax is 49.2% and the EC50 is 3980 nM.
In the same order, the values of `NCCNC(=O)O[C@@H]1C[C@H]2C(=O)N[C@H](CCc3ccccc3)C(=O)N[C@@H](Cc3c[nH]c4ccccc34)C(=O)N[C@@H](CN3CCNCC3)C(=O)N[C@@H](Cc3ccc(OCc4ccccc4)cc3)C(=O)N3Cc4ccccc4C[C@H]3C(=O)N2C1` [Example 35] (cyclo([Hyp]([CO-Ethylenediamine])[d(hPhe)]W[Ala(piperazin-1-yl)]Y(Bn)[Tic])) are 107%, 1 nM, 10046.0, 27.8% and > 10000 nM.
With `NCCNC(=O)O[C@@H]1C[C@H]2C(=O)N[C@@H](CCc3ccccc3)C(=O)N[C@@H](Cc3c[nH]c4ccccc34)C(=O)N[C@@H](CN3CCNCC3)C(=O)N[C@@H](Cc3ccc(OCc4ccccc4)cc3)C(=O)N3Cc4ccccc4C[C@H]3C(=O)N2C1` [Example 36] (cyclo([Hyp]([CO-Ethylenediamine])[hPhe]W[Ala(piperazin-1-yl)]Y(Bn)[Tic])), on SST5, the Emax stood at 102%, the EC50 was 1.26 nM and the “SST5/2 Selectivity” value is recorded as 384.3. Also, at SST2, the Emax is 63.4% and the EC50 was 501 nM.
For `NCCNC(=O)O[C@@H]1C[C@H]2C(=O)N[C@@H](CCc3ccccc3)C(=O)N[C@H](Cc3c[nH]c4ccccc34)C(=O)N[C@@H](CN3CCNCC3)C(=O)N[C@@H](Cc3ccc(OCc4ccccc4)cc3)C(=O)N3CCC[C@H]3C(=O)N2C1` [Example 37] (cyclo([Hyp]([CO-Ethylenediamine])[hPhe][dW][Ala(piperazin-1-yl)]Y(Bn)P)), at SST5, the Emax is 108%, the EC50 is 2 nM and the “SST5/2 Selectivity” value is on record as 2927.5. In addition, on SST2, the Emax was 75.8% and the EC50 is 6310 nM.
For the compound `NCCNC(=O)O[C@@H]1C[C@H]2C(=O)N[C@H](CCc3ccccc3)C(=O)N[C@H](Cc3c[nH]c4ccccc34)C(=O)N[C@@H](CC3CCNCC3)C(=O)N[C@@H](Cc3ccc(OCc4ccccc4)cc3)C(=O)N[C@@H](Cc3ccccc3)C(=O)N2C1` [Example 38] (cyclo(F[Hyp]([CO-Ethylenediamine])[d(hPhe)][dW][Ala(piperidin-4-yl)]Y(Bn))), on SST5, the Emax is 103%, the EC50 was 12.6 nM and the “SST5/2 Selectivity” value is reported as 171.5. At SST2, the Emax amounted to 82.7% and the EC50 is 2510 nM.
For `COc1ccc2[nH]cc(C[C@H]3NC(=O)[C@H](CCc4ccccc4)NC(=O)[C@@H]4C[C@@H](OC(=O)NCCN)CN4C(=O)[C@H](Cc4cccnc4)NC(=O)[C@H](Cc4ccc(OCc5ccccc5)cc4)NC(=O)[C@H](CC4CCNCC4)NC3=O)c2c1` [Example 39] (cyclo([3Pal][Hyp]([CO-Ethylenediamine])[hPhe][dTrp(5-OMe)][Ala(piperidin-4-yl)]Y(Bn))), at SST5, the Emax came to 107%, the EC50 was 0.398 nM and the “SST5/2 Selectivity” value is listed as 1104.6. Further, at SST2, the Emax stood at 100% and the EC50 was 398 nM.
With `NCCNC(=O)O[C@@H]1C[C@H]2C(=O)N[C@@H](CCc3ccccc3)C(=O)N[C@H](Cc3c[nH]c4ccccc34)C(=O)N[C@@H](CC3CCNCC3)C(=O)N[C@@H](Cc3ccc(OCc4ccc(Cl)cc4)cc3)C(=O)N[C@@H](Cc3cccnc3)C(=O)N2C1` [Example 40] (cyclo([3Pal][Hyp]([CO-Ethylenediamine])[hPhe][dW][Ala(piperidin-4-yl)]Y(Benzyl(4-Cl)))), on SST5, the Emax was 106%, the EC50 was 2.51 nM and the “SST5/2 Selectivity” value stood at 126.6. Besides, at SST2, the Emax turned out to be 91.2% and the EC50 was 316 nM.
In the same order, the values of `NCCNC(=O)O[C@@H]1C[C@H]2C(=O)N[C@@H](CCc3ccccc3)C(=O)N[C@H](Cc3c[nH]c4ccccc34)C(=O)N[C@@H](CC3CCNCC3)C(=O)N[C@@H](Cc3ccc(OCc4ccccc4)cc3)C(=O)N[C@@H](Cc3cccc(Cl)c3)C(=O)N2C1` [Example 41] (cyclo([Hyp]([CO-Ethylenediamine])[hPhe][dW][Ala(piperidin-4-yl)]Y(Bn)[Phe(3-Cl)])) are 104%, 0.158 nM, 51.0, 102% and 7.94 nM.
Take `NCCNC(=O)O[C@@H]1C[C@H]2C(=O)N[C@@H](CCc3ccccc3)C(=O)N[C@H](Cc3c[nH]c4ccccc34)C(=O)N[C@@H](CC3CCNCC3)C(=O)N[C@@H](Cc3ccc(OCc4ccccc4)cc3)C(=O)N[C@@H](Cc3ccc(Cl)cc3)C(=O)N2C1` [Example 42] (cyclo([Hyp]([CO-Ethylenediamine])[hPhe][dW][Ala(piperidin-4-yl)]Y(Bn)[Phe(4-Cl)])): on SST5, the Emax turned out to be 104%, the EC50 is 0.251 nM and the “SST5/2 Selectivity” value was found to be 45.1. At SST2, the Emax was 99.3% and the EC50 was 12.6 nM.
As to `COc1ccc(C[C@@H]2NC(=O)[C@H](Cc3ccc(OCc4ccccc4)cc3)NC(=O)[C@H](CC3CCNCC3)NC(=O)[C@@H](Cc3c[nH]c4ccccc34)NC(=O)[C@H](CCc3ccccc3)NC(=O)[C@@H]3C[C@@H](OC(=O)NCCN)CN3C2=O)cc1` [Example 43] (cyclo([Hyp]([CO-Ethylenediamine])[hPhe][dW][Ala(piperidin-4-yl)]Y(Bn)Y(Me))), on SST5, the Emax was 107%, the EC50 was 0.316 nM and the “SST5/2 Selectivity” value amounted to 94.3. Also, at SST2, the Emax was 101% and the EC50 is 31.6 nM.
The like results for `NCCNC(=O)O[C@@H]1C[C@H]2C(=O)N[C@@H](CCc3ccccc3)C(=O)N[C@H](Cc3c[nH]c4ccccc34)C(=O)N[C@@H](CC3CCNCC3)C(=O)N[C@@H](Cc3ccc(OCC4CCCCC4)cc3)C(=O)N3Cc4ccccc4C[C@H]3C(=O)N2C1` [Example 44] (cyclo([Hyp]([CO-Ethylenediamine])[hPhe][dW][Ala(piperidin-4-yl)]Y(Cyclohexylmethyl)[Tic])) were, in that order, 105%, 1 nM, 823.8, 75.3% and 794 nM.
In the same order, the values of `O=C1N[C@@H](Cc2ccc(OCc3ccccc3)cc2)C(=O)N2Cc3ccccc3C[C@H]2C(=O)N2CCOC[C@H]2C(=O)N[C@@H](CCc2ccccc2)C(=O)N[C@H](Cc2c[nH]c3ccccc23)C(=O)N[C@H]1CC1CCNCC1` [Example 45] (cyclo([Tic][Morpholine(3S-CO)][hPhe][dW][Ala(piperidin-4-yl)]Y(Bn))) are 100%, 0.398 nM, 430.7, 100% and 158 nM.
